In the NIST ThermoML archive (doi:10.1016/j.jct.2017.12.012):
Numbers after ± are expanded uncertainties.

What was measured:
[1] = activity coefficient (dimensionless); of the first substance listed, at infinite dilution; xn = mol fraction of the nth substance listed; settings: 101.33 kPa, Liquid, Chromatography, x1 = 0
[2] = 101.33 kPa, Liquid, Vibrating tube method

| SMILES | activity coefficient ([1]; 313.15 K) | activity coefficient ([1]; 323.15 K) | activity coefficient ([1]; 333.15 K) | activity coefficient ([1]; 343.15 K) | activity coefficient ([1]; 353.15 K) | mass density ([2]; 313.15 K) [kg/m3] | mass density ([2]; 323.15 K) [kg/m3] | mass density ([2]; 333.15 K) [kg/m3] | mass density ([2]; 343.15 K) [kg/m3] | mass density ([2]; 353.15 K) [kg/m3] |
| --- | --- | --- | --- | --- | --- | --- | --- | --- | --- | --- |
| CCOC(C)=O [ethyl acetate] + CCCCCCCCn1cc[n+](C)c1C.O=S(=O)([N-]S(=O)(=O)C(F)(F)F)C(F)(F)F | 0.74 ± 0.08 | 0.67 ± 0.07 | 0.61 ± 0.07 | 0.57 ± 0.06 | 0.52 ± 0.06 |  |  |  |  |  |
| ClCCl [dichloromethane] + CCCCCCCCn1cc[n+](C)c1C.O=S(=O)([N-]S(=O)(=O)C(F)(F)F)C(F)(F)F | 0.82 ± 0.08 | 0.75 ± 0.08 | 0.68 ± 0.07 | 0.64 ± 0.07 | 0.58 ± 0.06 |  |  |  |  |  |
| CCCCCCCC [octane] + CCCCCCCCn1cc[n+](C)c1C.O=S(=O)([N-]S(=O)(=O)C(F)(F)F)C(F)(F)F | 11.1 ± 1.2 | 9.5 ± 1 | 8.12 ± 0.85 | 7.17 ± 0.75 | 6.32 ± 0.66 |  |  |  |  |  |
| ClC(Cl)(Cl)Cl [tetrachloromethane] + CCCCCCCCn1cc[n+](C)c1C.O=S(=O)([N-]S(=O)(=O)C(F)(F)F)C(F)(F)F | 1.77 ± 0.18 | 1.67 ± 0.17 | 1.57 ± 0.16 | 1.46 ± 0.15 | 1.39 ± 0.14 |  |  |  |  |  |
| CC(C)CO [2-methyl-1-propanol] + CCCCCCCCn1cc[n+](C)c1C.O=S(=O)([N-]S(=O)(=O)C(F)(F)F)C(F)(F)F | 2.21 ± 0.23 | 1.88 ± 0.2 | 1.6 ± 0.17 | 1.39 ± 0.14 | 1.21 ± 0.12 |  |  |  |  |  |
| CC1CCCCC1 [methylcyclohexane] + CCCCCCCCn1cc[n+](C)c1C.O=S(=O)([N-]S(=O)(=O)C(F)(F)F)C(F)(F)F | 5.67 ± 0.6 | 4.88 ± 0.51 | 4.25 ± 0.45 | 3.79 ± 0.4 | 3.32 ± 0.35 |  |  |  |  |  |
| Cc1ccc(C)cc1 [1,4-dimethylbenzene] + CCCCCCCCn1cc[n+](C)c1C.O=S(=O)([N-]S(=O)(=O)C(F)(F)F)C(F)(F)F | 1.17 ± 0.12 | 1.11 ± 0.11 | 1.06 ± 0.11 | 1 ± 0.1 | 0.95 ± 0.1 |  |  |  |  |  |
| CC(C)CCO [3-methylbutan-1-ol] + CCCCCCCCn1cc[n+](C)c1C.O=S(=O)([N-]S(=O)(=O)C(F)(F)F)C(F)(F)F | 2.46 ± 0.26 | 2.11 ± 0.22 | 1.79 ± 0.19 | 1.55 ± 0.16 | 1.32 ± 0.14 |  |  |  |  |  |
| Cc1ccccc1 [toluene] + CCCCCCCCn1cc[n+](C)c1C.O=S(=O)([N-]S(=O)(=O)C(F)(F)F)C(F)(F)F | 1.03 ± 0.1 | 0.94 ± 0.1 | 0.87 ± 0.09 | 0.82 ± 0.08 | 0.78 ± 0.08 |  |  |  |  |  |
| CC(C)=O [acetone] + CCCCCCCCn1cc[n+](C)c1C.O=S(=O)([N-]S(=O)(=O)C(F)(F)F)C(F)(F)F | 0.46 ± 0.05 | 0.41 ± 0.05 | 0.37 ± 0.04 | 0.34 ± 0.04 | 0.31 ± 0.04 |  |  |  |  |  |
| ClC(Cl)Cl [trichloromethane] + CCCCCCCCn1cc[n+](C)c1C.O=S(=O)([N-]S(=O)(=O)C(F)(F)F)C(F)(F)F | 0.77 ± 0.08 | 0.7 ± 0.07 | 0.65 ± 0.07 | 0.6 ± 0.06 | 0.54 ± 0.06 |  |  |  |  |  |
| Cc1cccc(C)c1 [1,3-dimethylbenzene] + CCCCCCCCn1cc[n+](C)c1C.O=S(=O)([N-]S(=O)(=O)C(F)(F)F)C(F)(F)F | 1.18 ± 0.12 | 1.14 ± 0.12 | 1.1 ± 0.11 | 1.04 ± 0.11 | 1.01 ± 0.1 |  |  |  |  |  |
| C1COCCO1 [1,4-dioxane] + CCCCCCCCn1cc[n+](C)c1C.O=S(=O)([N-]S(=O)(=O)C(F)(F)F)C(F)(F)F | 0.64 ± 0.07 | 0.56 ± 0.06 | 0.51 ± 0.06 | 0.47 ± 0.05 | 0.42 ± 0.05 |  |  |  |  |  |
| C=CCCCC [hex-1-ene] + CCCCCCCCn1cc[n+](C)c1C.O=S(=O)([N-]S(=O)(=O)C(F)(F)F)C(F)(F)F | 4.99 ± 0.52 | 4.26 ± 0.45 | 3.65 ± 0.38 | 3.18 ± 0.33 | 2.81 ± 0.3 |  |  |  |  |  |
| CCc1ccccc1 [ethylbenzene] + CCCCCCCCn1cc[n+](C)c1C.O=S(=O)([N-]S(=O)(=O)C(F)(F)F)C(F)(F)F | 1.37 ± 0.14 | 1.29 ± 0.13 | 1.2 ± 0.12 | 1.14 ± 0.12 | 1.08 ± 0.11 |  |  |  |  |  |
| CCO [ethanol] + CCCCCCCCn1cc[n+](C)c1C.O=S(=O)([N-]S(=O)(=O)C(F)(F)F)C(F)(F)F | 1.7 ± 0.18 | 1.49 ± 0.15 | 1.31 ± 0.13 | 1.15 ± 0.12 | 1.01 ± 0.1 |  |  |  |  |  |
| CCCCCCCCC [nonane] + CCCCCCCCn1cc[n+](C)c1C.O=S(=O)([N-]S(=O)(=O)C(F)(F)F)C(F)(F)F | 14.4 ± 1.5 | 12.1 ± 1.3 | 10.4 ± 1.1 | 9.04 ± 0.95 | 8.04 ± 0.85 |  |  |  |  |  |

| SMILES | activity coefficient ([1]; 313.15 K) | activity coefficient ([1]; 323.15 K) | activity coefficient ([1]; 333.15 K) | activity coefficient ([1]; 343.15 K) | activity coefficient ([1]; 353.15 K) | mass density ([2]; 313.15 K) [kg/m3] | mass density ([2]; 323.15 K) [kg/m3] | mass density ([2]; 333.15 K) [kg/m3] | mass density ([2]; 343.15 K) [kg/m3] | mass density ([2]; 353.15 K) [kg/m3] |
| --- | --- | --- | --- | --- | --- | --- | --- | --- | --- | --- |
| CCCCCCC [heptane] + CCCCCCCCn1cc[n+](C)c1C.O=S(=O)([N-]S(=O)(=O)C(F)(F)F)C(F)(F)F | 8.82 ± 0.93 | 7.77 ± 0.82 | 6.89 ± 0.72 | 6.29 ± 0.66 | 5.69 ± 0.6 |  |  |  |  |  |
| C1=CCCCC1 [cyclohexene] + CCCCCCCCn1cc[n+](C)c1C.O=S(=O)([N-]S(=O)(=O)C(F)(F)F)C(F)(F)F | 3.04 ± 0.32 | 2.77 ± 0.29 | 2.5 ± 0.26 | 2.28 ± 0.24 | 2.1 ± 0.22 |  |  |  |  |  |
| CC(C)O [propan-2-ol] + CCCCCCCCn1cc[n+](C)c1C.O=S(=O)([N-]S(=O)(=O)C(F)(F)F)C(F)(F)F | 2.13 ± 0.22 | 1.82 ± 0.19 | 1.56 ± 0.16 | 1.34 ± 0.14 | 1.17 ± 0.12 |  |  |  |  |  |
| CCCCCC [hexane] + CCCCCCCCn1cc[n+](C)c1C.O=S(=O)([N-]S(=O)(=O)C(F)(F)F)C(F)(F)F | 7.89 ± 0.83 | 6.52 ± 0.69 | 5.57 ± 0.59 | 4.87 ± 0.51 | 4.22 ± 0.44 |  |  |  |  |  |
| CCCCC [pentane] + CCCCCCCCn1cc[n+](C)c1C.O=S(=O)([N-]S(=O)(=O)C(F)(F)F)C(F)(F)F | 6.78 ± 0.71 | 5.63 ± 0.59 | 4.81 ± 0.51 | 4.24 ± 0.45 | 3.66 ± 0.38 |  |  |  |  |  |
| CCC(C)O (stereo not given) [butan-2-ol] + CCCCCCCCn1cc[n+](C)c1C.O=S(=O)([N-]S(=O)(=O)C(F)(F)F)C(F)(F)F | 2.03 ± 0.21 | 1.74 ± 0.18 | 1.5 ± 0.16 | 1.29 ± 0.13 | 1.11 ± 0.11 |  |  |  |  |  |
| CCCCCCCCCC [decane] + CCCCCCCCn1cc[n+](C)c1C.O=S(=O)([N-]S(=O)(=O)C(F)(F)F)C(F)(F)F | 20.8 ± 2.2 | 16.4 ± 1.7 | 13.5 ± 1.4 | 11.2 ± 1.2 | 9.33 ± 0.98 |  |  |  |  |  |
| CO [methanol] + CCCCCCCCn1cc[n+](C)c1C.O=S(=O)([N-]S(=O)(=O)C(F)(F)F)C(F)(F)F | 1.37 ± 0.14 | 1.26 ± 0.13 | 1.14 ± 0.12 | 1.05 ± 0.11 | 0.96 ± 0.1 |  |  |  |  |  |
| Cc1ccccc1C [1,2-dimethylbenzene] + CCCCCCCCn1cc[n+](C)c1C.O=S(=O)([N-]S(=O)(=O)C(F)(F)F)C(F)(F)F | 1.15 ± 0.12 | 1.08 ± 0.11 | 1.02 ± 0.1 | 0.96 ± 0.1 | 0.93 ± 0.09 |  |  |  |  |  |
| CCCCCO [pentan-1-ol] + CCCCCCCCn1cc[n+](C)c1C.O=S(=O)([N-]S(=O)(=O)C(F)(F)F)C(F)(F)F | 2.61 ± 0.27 | 2.22 ± 0.23 | 1.92 ± 0.2 | 1.62 ± 0.17 | 1.41 ± 0.15 |  |  |  |  |  |
| CC#N [acetonitrile] + CCCCCCCCn1cc[n+](C)c1C.O=S(=O)([N-]S(=O)(=O)C(F)(F)F)C(F)(F)F | 0.51 ± 0.06 | 0.45 ± 0.05 | 0.4 ± 0.05 | 0.37 ± 0.04 | 0.34 ± 0.04 |  |  |  |  |  |
| C1CCCCC1 [cyclohexane] + CCCCCCCCn1cc[n+](C)c1C.O=S(=O)([N-]S(=O)(=O)C(F)(F)F)C(F)(F)F | 4.76 ± 0.5 | 4.16 ± 0.44 | 3.75 ± 0.39 | 3.37 ± 0.35 | 3.12 ± 0.33 |  |  |  |  |  |
| CCCO [propan-1-ol] + CCCCCCCCn1cc[n+](C)c1C.O=S(=O)([N-]S(=O)(=O)C(F)(F)F)C(F)(F)F | 1.94 ± 0.2 | 1.67 ± 0.17 | 1.42 ± 0.15 | 1.22 ± 0.13 | 1.05 ± 0.11 |  |  |  |  |  |
| CCCCO [butan-1-ol] + CCCCCCCCn1cc[n+](C)c1C.O=S(=O)([N-]S(=O)(=O)C(F)(F)F)C(F)(F)F | 2.31 ± 0.24 | 1.96 ± 0.21 | 1.7 ± 0.18 | 1.46 ± 0.15 | 1.27 ± 0.13 |  |  |  |  |  |
| CCCCCCCCn1cc[n+](C)c1C.O=S(=O)([N-]S(=O)(=O)C(F)(F)F)C(F)(F)F |  |  |  |  |  | 1296.1 ± 2.4 | 1287.4 ± 2.4 | 1278.6 ± 2.4 | 1269.1 ± 2.4 | 1258.2 ± 2.4 |
| C1CCOC1 [tetrahydrofuran] + CCCCCCCCn1cc[n+](C)c1C.O=S(=O)([N-]S(=O)(=O)C(F)(F)F)C(F)(F)F | 0.54 ± 0.06 | 0.48 ± 0.05 | 0.44 ± 0.05 | 0.4 ± 0.05 | 0.37 ± 0.04 |  |  |  |  |  |
| c1ccccc1 [benzene] + CCCCCCCCn1cc[n+](C)c1C.O=S(=O)([N-]S(=O)(=O)C(F)(F)F)C(F)(F)F | 0.81 ± 0.08 | 0.74 ± 0.08 | 0.68 ± 0.07 | 0.63 ± 0.07 | 0.59 ± 0.06 |  |  |  |  |  |
